From paper PMC10726465, “Synthesis and Evaluation of Small Molecule Inhibitors of the Androgen Receptor N-Terminal Domain” (ACS Medicinal Chemistry Letters, 2023)
Like-named read-outs stand apart in the source and are kept apart here.

Biological target: T1, androgen receptor (AR) (Homo sapiens, UniProt P10275)
T1 sequence (P10275 1-920): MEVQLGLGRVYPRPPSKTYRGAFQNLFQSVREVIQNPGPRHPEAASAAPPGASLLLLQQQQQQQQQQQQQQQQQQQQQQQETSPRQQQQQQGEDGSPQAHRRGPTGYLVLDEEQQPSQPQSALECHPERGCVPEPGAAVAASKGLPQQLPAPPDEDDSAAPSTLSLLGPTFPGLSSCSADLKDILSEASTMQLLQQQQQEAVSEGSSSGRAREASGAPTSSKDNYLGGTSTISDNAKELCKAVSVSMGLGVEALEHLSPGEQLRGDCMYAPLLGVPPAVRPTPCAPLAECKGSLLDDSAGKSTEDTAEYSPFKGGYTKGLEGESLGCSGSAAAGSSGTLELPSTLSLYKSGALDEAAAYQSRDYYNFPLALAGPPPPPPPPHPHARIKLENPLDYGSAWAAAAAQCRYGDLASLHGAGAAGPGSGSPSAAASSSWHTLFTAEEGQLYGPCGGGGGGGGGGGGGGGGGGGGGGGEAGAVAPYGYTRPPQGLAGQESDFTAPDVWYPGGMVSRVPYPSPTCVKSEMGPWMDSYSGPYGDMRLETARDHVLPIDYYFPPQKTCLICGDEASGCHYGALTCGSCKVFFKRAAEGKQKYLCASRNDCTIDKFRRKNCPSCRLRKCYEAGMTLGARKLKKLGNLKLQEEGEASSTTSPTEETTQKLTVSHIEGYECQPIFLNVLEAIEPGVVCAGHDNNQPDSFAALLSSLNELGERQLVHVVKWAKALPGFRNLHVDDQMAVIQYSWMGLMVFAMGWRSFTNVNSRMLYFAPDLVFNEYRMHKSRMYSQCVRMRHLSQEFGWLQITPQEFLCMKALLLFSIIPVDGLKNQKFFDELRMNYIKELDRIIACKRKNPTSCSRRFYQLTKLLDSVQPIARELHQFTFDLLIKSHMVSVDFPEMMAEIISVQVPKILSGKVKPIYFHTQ
Conditions: for Ligand Efficiency (LE): from VCaP GRE2-luciferase IC50; for Lipophilic Ligand Efficiency (LLE): from VCaP GRE2-luciferase IC50 and cLogP

[1] = read-out: VCaP GRE2-luciferase IC50, VCaP cells, 1 nM DHT, 24 h, 0–30 µM compound

Description: VCaP cells, obtained from the American Type Culture Collection, were maintained in Dulbecco’s Modified Eagles Medium (DMEM) supplemented with 10% foetal bovine serum. Cells were maintained at 37°C without antibiotics in a humidified atmosphere
Transient transfection and Luciferase Activity Assay:
Cells at 70–80% confluence in 24 well plates, were transferred to DMEM
300ng/well of the firefly reporter plasmid, GRE2-TATA-luc using JetPEI (PolyPLUS Transfection) according to the manufacturers’ protocol.
replaced with fresh DMEM +5% CSS containing either DMSO (vehicle control) or 0– 30 µM small molecules together with 1nM DHT. Twenty four hours later, medium was aspirated, cells were washed with PBS and extracted with Passive Lysis Buffer
Cell debris was removed by centrifugation at 13,000 xg for 5min and supernatants collected. Luciferase activity was measured in triplicate, using an in-house luciferase assay buffer (13 mM MgSO4 7H2O, 30 mM
amount of total cellular protein.
Inhibition of hormone-dependent expression of prostate specific antigen (PSA):
VCaP prostate cells were treated with 1 nM DHT in the absence or presence of inhibitor. After 24 hours cells were harvested and PSA detected by Western blotting and normalised against β-actin.
Luciferase activity in cells treated with small molecules was determined as a percentage of the untreated control, which was set at 100%. Plots of activity against small molecule concentration (log) were analysed in GraphPad PRISM 5 and IC50 values for each small molecule determined.

| SMILES | activity in VCaP GRE2-luciferase assay (in words) (VCaP cells, 1 nM DHT) | Ligand Efficiency (LE) | Lipophilic Ligand Efficiency (LLE) | IC50 [1] [µM] | decrease in activity relative to indazole 12 (VCaP GRE2-luciferase IC50 ratio) [fold] | IC50 [µM] |
| --- | --- | --- | --- | --- | --- | --- |
| CSc1ccc(C(N)=O)cc1-c1ccncc1 [Compound 23] | loss of activity | 0.61 | 5.6 | > 30 | – | – |
| CSc1ccc(C(N)=O)cc1-c1ccc2occc2c1 [Compound 25] | – | 0.63 | 5.9 | 0.6 | – | – |
| Cn1ncc2cc(-c3cc(C(N)=O)ccc3OCC3CC3)ccc21 [Compound 50] | inactive | 0.43 | 5.1 | > 30 | – | – |
| CSc1ccc(C(N)=O)cc1-c1ccccc1 [Compound 8] | inactive | 0.61 | 4.6 | > 30 | – | – |
| CCc1ccc(C(N)=O)cc1-c1ccc2c(cnn2C)c1 [Compound 42] | loss of activity | 0.49 | 5.0 | > 30 | – | – |
| CSc1ccc(C(=O)O)cc1-c1cncnc1 [Compound 58] | – | 0.80 | 8.2 | 0.12 | – | – |
| CSc1ncc(C(N)=O)cc1-c1ccc2c(cnn2C)c1 [Compound 34] | loss of activity | 0.49 | 6.2 | > 30 | – | – |
| CSc1ccc(C(N)=O)cc1-c1ccc2[nH]ccc2c1 [Compound 13] | – | 0.54 | 5.1 | 10.3 | 10 | – |
| CSc1ccc(C(N)=O)cc1-c1ccc2c(c1)CCO2 [Compound 27] | – | 0.52 | 4.4 | > 30 | – | – |
| CSc1ccc(C(N)=O)cc1-c1ccc2[nH]cnc2c1 [Compound 15] | – | 0.62 | 6.6 | 0.92 | – | – |
| COc1cc(-c2cc(C(N)=O)ccc2SC)ccc1N [Compound 30] | loss of activity | 0.52 | 5.4 | > 30 | – | – |
| COc1ccc(-c2cc(C(N)=O)ccc2SC)cc1OC [Compound 28] | Activity was abolished | 0.49 | 4.8 | > 30 | – | – |
| Cn1ncc2cc(-c3cc(C(N)=O)ccc3O)ccc21 [Compound 49] | lack of activity | 0.52 | 6.1 | > 30 | – | – |
| Cn1ncc2cc(-c3cc(C(N)=O)ccc3OC(F)(F)F)ccc21 [Compound 48] | – | 0.43 | 4.6 | > 30 | – | – |
| COc1ccc(-c2cc(C(N)=O)ccc2SC)cc1F [Compound 29] | – | 0.63 | 6.2 | 0.76 | – | – |
| Cn1ncc2cc(-c3cc(C(N)=O)ccc3NCCN3CCCCC3)ccc21 [Compound 55] | – | 0.37 | 5.3 | > 30 | – | – |
| CSc1cc(C(N)=O)cc(-c2ccc3c(cnn3C)c2)c1 [Compound 39] | inactive | 0.49 | 5.3 | > 30 | – | – |
| COc1ccc(C(N)=O)cc1-c1ccc2c(cnn2C)c1 [Compound 46] | – | 0.49 | 5.8 | > 30 | – | – |
| CSc1ccc(C(N)=O)cc1-c1ccc2nccn2c1 [Compound 18] | no activity | 0.52 | 5.7 | > 30 | – | – |
| Cn1ncc2cc(-c3cc(C(N)=O)cnc3SCc3ccccc3)ccc21 [Compound 35] | – | 0.38 | 4.7 | > 30 | – | – |
| CSc1ccc(C(N)=O)cc1-c1cccc2c1CC(=O)N2 [Compound 19] | no activity | 0.49 | 5.5 | > 30 | – | – |
| CN(C)CCNc1ccc(C(N)=O)cc1-c1ccc2c(cnn2C)c1 [Compound 57] | – | 0.41 | 6.4 | > 30 | – | – |

| SMILES | activity in VCaP GRE2-luciferase assay (in words) (VCaP cells, 1 nM DHT) | Ligand Efficiency (LE) | Lipophilic Ligand Efficiency (LLE) | IC50 [1] [µM] | decrease in activity relative to indazole 12 (VCaP GRE2-luciferase IC50 ratio) [fold] | IC50 [µM] |
| --- | --- | --- | --- | --- | --- | --- |
| CSc1ccc(C(N)=O)cc1-c1ccc2ncccc2c1 [Compound 20] | – | 0.59 | 5.9 | 0.8 | – | – |
| CSc1ccc(C(N)=O)cc1-c1ccc2c(ccn2C)c1 [Compound 17] | – | 0.66 | 7.0 | 0.09 | – | – |
| Cn1ncc2cc(-c3cncc(C(N)=O)c3)ccc21 [Compound 36] | – | 0.54 | 6.7 | > 30 | – | – |
| CSc1ccc(C(N)=O)cc1-c1cccnc1 [Compound 22] | loss of activity | 0.61 | 5.6 | > 30 | – | – |
| CSc1ccc(C(N)=O)cc1-c1ccc2cnccc2c1 [Compound 21] | – | 0.59 | 6.0 | – | – | 0.9 |
| CSc1ccc(C(=O)N2CCCCC2)cc1-c1cncnc1 [Compound 59] | – | 0.62 | 6.8 | 0.13 | – | – |
| Cn1ncc2cc(-c3cc(C(N)=O)ccc3NCCN3CCOCC3)ccc21 [Compound 54] | – | 0.37 | 6.4 | > 30 | – | – |
| CSc1ccc(C(N)=O)cc1-c1cccs1 [Compound 9] | – | 0.79 | 6.3 | 0.6 | – | – |
| CSc1ccc(C(N)=O)cc1-c1ccc(F)c(O)c1 [Compound 33] | – | 0.72 | 7.3 | 0.12 | – | – |
| Cn1ncc2cc(-c3cc(C(N)=O)ccc3N3CCOCC3)ccc21 [Compound 53] | – | 0.41 | 6.1 | > 30 | – | – |
| Cn1ncc2cc(-c3cccc(C(N)=O)c3)ccc21 [Compound 43] | no bioactivity | 0.54 | 5.7 | > 30 | – | – |
| CSc1ccc(C(N)=O)cc1-c1c(C)noc1C [Compound 10] | – | 0.63 | 6.2 | 4.7 | – | – |
| CSc1ccc(C(N)=O)cc1-c1ccc2cn[nH]c2c1 [Compound 14] | – | 0.63 | 7.1 | 2.2 | – | – |
| Cc1ccc(C(N)=O)cc1-c1ccc2c(cnn2C)c1 [Compound 41] | loss of activity | 0.52 | 5.4 | > 30 | – | – |
| CSc1ccc(C(N)=O)cc1-c1ccno1 [Compound 7] | – | 0.70 | 6.7 | 7.4 | – | – |
| CC(C)COc1ccc(C(N)=O)cc1-c1ccc2c(cnn2C)c1 [Compound 51] | inactive | 0.43 | 4.7 | > 30 | – | – |
| Cn1ncc2cc(-c3cc(C(N)=O)ccc3OCc3ccccc3)ccc21 [Compound 47] | – | 0.38 | 4.4 | > 30 | – | – |
| Cn1ncc2cc(-c3cc(C(N)=O)ccc3SCc3ccccc3)ccc21 [Compound 40] | – | 0.44 | 4.9 | 2.2 | – | – |
| CSc1ccc(C(N)=O)cc1-c1ccc2ocnc2c1 [Compound 26] | – | 0.52 | 4.6 | > 30 | – | – |
| Cn1ncc2cc(-c3cc(C(N)=O)ccc3C(F)(F)F)ccc21 [Compound 45] | – | 0.48 | 5.4 | 8.6 | – | – |
| CSc1ccc(C(N)=O)cc1-c1cc(O)cc(F)c1 [Compound 32] | inactive | 0.54 | 4.9 | > 30 | – | – |
| COc1ncc(C(N)=O)cc1-c1ccc2c(cnn2C)c1 [Compound 37] | – | 0.49 | 6.5 | > 30 | – | – |
